In US12459951B2, “Compounds that interact with RAS superfamily proteins for treatment of cancers, inflammatory diseases, rasopathies, and fibrotic disease” (SHY Therapeutics, LLC, priority 2022, dated 2025):
Where two headings read alike, the source gives them in different places.

Tests used:
IL6 = assay: IL-6 Quantification Assay (ELISA), LPS-stimulated RAW 264.7; format: cell-based; parameters: inhibition: dose or concentration left out as unconfirmed; conditions: Mus musculus, RAW264.7; read-out: IL-6: % inh.
[1] = test system: MiaPaca-2 (expressing KRAS G12C mutant); assay: Proliferation Assay (Cell Viability Assay); format: cell-based; conditions: Homo sapiens, MIA PaCa-2
Procedure: Protocol for Proliferation Assay
This assay is referred to as the “Proliferation Assay” or “Cell Viability Assay” throughout this application.
Cell lines: Human tumor-derived cell lines were purchased from American Type Culture Collection. Human tumor-derived pancreatic cancer cell line MiaPaca-2 (expressing KRAS G12C mutant) and Panc-1 (expressing KRas G12D mutant), and Human non-small cell lung cancer (NSCLC) cell line A549 (expressing KRas G12S mutant) were grown in complete DMEM-High Glucose medium. Human colon cancer cell line SW-620 (expressing KRas G12V mutant) was grown in RPMI 1640 medium. All cell lines were supplemented with penicillin (100 U/mL), streptomycin (100 μg/mL), and 10% heat-inactivated FBS at 37° C. in a humidified incubator with 5% CO2.
(§1) Method: Cells were plated at 2000 to 5000 cells/well density in 96-wells plate and cultured overnight. Small molecules to be tested were added to the cells in the final concentration of 10 μM in the presence of 0.3% DMSO and 10% FBS and incubated for 2-4 days at 37° C. in a humidified incubator with 5% CO2. For IC50 value determination, serial dilutions of compounds were added to cells under the same conditions.
Assay: At the end of the incubation period, cell viability was determined using the CellTiter 96® Aqueous One Solution Cell Proliferation Assay according to manufacturer specifications (Promega, Madison, WI). The percentage of small molecules inhibition of cellular proliferation was calculated from raw data.
Cell lines: these Human tumor-derived cell lines were purchased from American Type Culture Collection. Human tumor-derived pancreatic cancer cell line MiaPaca-2 (expressing KRAS G12C mutant) and Panc-1 (expressing KRas G12D mutant), and Human non-small cell lung cancer (NSCLC) cell line A549 (expressing KRas G12S mutant), and Human melanoma cell line A375 (wild type Kras) were grown in complete DMEM-High Glucose medium. Human tumor-derived pancreatic cancer cell lines SU86.86 (expressing KRas G12D mutant), BxPC3 (expressing wild type K-Ras), and Human non-small cell lung cancer (NSCLC) cell lines NCI-H441 (expressing KRas G12S mutant), NCI-H1975 (expressing wild type KRas), NCI-H358 (expressing KRas G12C mutant), NCI-H1299 (expressing NRas Q61H mutant), and Human colon cancer cell line SW-620 (expressing KRas G12V mutant), Human triple negative breast cancer cell line HCC-1806 (expressing wild type KRas), and Human tumor-derived multiple myeloma cell line MM.1R (expressing wild type KRAS), were grown in RPMI 1640 medium. Human tumor-derived breast cancer cell line BT-549 (expressing wild type KRAS) was grown in RPMI 1640 medium in the presence of 11.8U insulin. Human tumor-derived pancreatic cancer cell line HPAF-II (expressing KRas G12D mutant), Human triple negative breast cancer cell line BT-20 (expressing wild type KRas), and Human colon cancer cell line LS123 (expressing KRas G12S mutant), were grown in EMEM medium. Human tumor-derived pancreatic cancer cell line CF-PAC1 (expressing KRas G12V mutant) was frown in IMDM medium, and Human colon cancer cell line HT29 (expressing wild type KRas) was grown in McCoy's 5A medium. The colon cancer cell line GP2d (expressing KRas G12D mutant) was purchased from MilliporeSigma and grown in DMEM-High Glucose medium. All cell lines were supplemented with penicillin (100 U/mL), streptomycin (100 μg/mL), and 10% heat-inactivated FBS at 37° C. in a humidified incubator with 5% CO2.
as §1, with “that were” for “to be”, “FBS,” for “FBS”

TNF-alpha = TNF-alpha Quantification Assay (ELISA), LPS-stimulated RAW 264.7; format: cell-based; conditions: Mus musculus, RAW264.7; at 10 μM; read-out: TNFα: % inh.
Erk1/2 phosphorylation = assay: Erk1/2 Phosphorylation Assay (western blot), Panc-1; format: cell-based, human; conditions: at 10 μM, * = activation
Procedure: Protocol for Western Erk1/2 Cell-Based Phosphorylation Assay
This assay is referred to as the “Erk1/2 Phosphorylation Assay” throughout this application.
Cell lines: Human tumor-derived pancreatic cancer cell line Panc-1 (expressing KRas G12D mutant) was purchased from American Type Culture Collection and grown in complete DMEM-High Glucose medium, supplemented with penicillin (100 U/mL), streptomycin (100 μg/mL), and 10% heat-inactivated FBS at 37° C. in a humidified incubator with 5% CO2.
Method 1: Cells were plated at 350000 cells/well density in a 12-well plate, allowed 3 hours to adhere to the plate, then starved in the appropriate medium in the presence of 0.5% FBS overnight. The small molecules to be tested were added to the cells in the final concentration of 10 μM in the presence of 0.3% DMSO for 6 hours incubation at 37° C. For IC50 value determination, serial dilutions of compounds were added to cells under the same conditions. Next, cells were stimulated with 1.5 ng/ml EGF for 15 minutes then cells were lysed with lysis buffer containing 1% Triton X-100, EDTA, and Halt™ Protease & Phosphatase Inhibitor Cocktail (Thermo Scientific). Protein concentration was assessed by BCA protein assay (Thermo Scientific). Phosphorylation level of Erk1/2 was determined by western blot.
Method 2: Cells were plated at 350000 cells/well density in a 12-well plate in 10% FBS. The next day small molecules to be tested were added to the cells in the final concentration of 10 μM in the presence of 0.3% DMSO for 6 hours incubation at 37° C. For IC50 value determination, serial dilutions of compounds were added to cells under the same conditions. Next, cells were lysed with lysis buffer containing 1% Triton X-100, EDTA, and Halt™ Protease & Phosphatase Inhibitor Cocktail (Thermo Scientific). Protein concentration was assessed by BCA protein assay (Thermo Scientific). Phosphorylation level of Erk1/2 was determined by western blot.
Western blot protocol: Equal amounts of protein (15-50 μg) were separated by SDS-PAGE and transferred to nitrocellulose membranes (Invitrogen by Thermo Fisher Scientific). The membrane was stained with Ponceau S Stain (Boston BioProducts) to verify uniform protein loading. Membranes were blocked with 10% milk and phosphorylation levels of Erk1/2 were assessed by incubating overnight at 4° C. with anti-phospho-p44/42 (Thr202/Tyr204) antibody (Cell Signaling) followed by HRP-conjugated secondary antibody (Jackson Immunoresearch, West Grove, PA). Bands were incubated in Amersham ECL Prime Western Blotting Detection Reagent (GE Healthcare) and visualized using the ChemiDoc MP imaging system (Bio-Rad).

[2] = read-out: Proliferation in MiaPaca-2: IC50

Compound | IC50 [1, 2] [nM] | IC50 ([1]; MiaPaca2, pancreatic, KRas G12C, read-out: Proliferation assay IC50) [nM] | IC50 ([1]; Proliferation assay, MiaPaca-2, read-out: MiaPaca-2 IC50 (nM) Pancreatic) [nM] | inhibition (IL6) [%] | inhibition at 10 µM (TNF-alpha) [%] | % inh of Erk1/2 phosphorylation in Panc-1 (Erk1/2 phosphorylation)
CO[C@H]1CC[C@@H](Nc2nc(-c3nccn3C)nn3cc(-c4ccn(C)n4)c(C)c23)C1 (racemic) [Compound 133, rac N-((1R,3S)-3-Methoxycyclopentyl)-5-methyl-2-(1-methyl-1H-imidazol-2-yl)-6-(1-methyl-1H-pyrazol-3-yl)pyrrolo[2,1-f][1,2,4]triazin-4-amine] | > 1000 | – | – | 0 | 1 to 24 | A (1-25% inhibition)
CO[C@@H]1CC[C@@H](Nc2nc(-c3nccn3C)nn3cc(-c4cccnc4)c(C)c23)C1 (racemic) [Compound 154, rac N-((1R,3R)-3-methoxy-cyclopentyl)-5-methyl-2-(1-methyl-1H-imidazol-2-yl)-6-(pyridin-3-yl)pyrrolo[2,1-f][1,2,4]triazin-4-amine] | > 1000 | – | – | 25 to 49 | 0 | C* (46-84% activation)
CO[C@H]1CC[C@@H](Nc2nc(-c3nccn3C)nn3cc(-c4cccnc4)c(C)c23)C1 (racemic) [Compound 155, rac N-((1R,3S)-3-methoxy-cyclopentyl)-5-methyl-2-(1-methyl-1H-imidazol-2-yl)-6-(pyridin-3-yl)pyrrolo[2,1-f][1,2,4]triazin-4-amine] | > 1000 | – | – | 25 to 49 | 0 | A* (1-25% activation)
COc1cc(-c2cn3nc(-c4nccn4C)nc(N[C@@H]4CC[C@@H](OC)C4)c3c2C)ccn1 (racemic) [Compound 163, rac N-((1R,3R)-3-Methoxycyclopentyl)-6-(2-methoxypyridin-4-yl)-5-methyl-2-(1-methyl-1H-imidazol-2-yl)pyrrolo[2,1-f][1,2,4]triazin-4-amine] | > 1000 | – | – | 75 to 100 | 1 to 24 | A* (1-25% activation)
COc1cc(-c2cn3nc(-c4nccn4C)nc(N[C@@H]4CC[C@H](OC)C4)c3c2C)ccn1 (racemic) [Compound 164, rac N-((1R,3S)-3-Methoxycyclopentyl)-6-(2-methoxypyridin-4-yl)-5-methyl-2-(1-methyl-1H-imidazol-2-yl)pyrrolo[2,1-f][1,2,4]triazin-4-amine] | > 1000 | – | – | 75 to 100 | 1 to 24 | A* (1-25% activation)
Cc1c(-c2ccn(C(C)C)n2)cn2nc(-c3ccccn3)nc(O)c12 [Compound 8, 6-(1-Isopropyl-1H-pyrazol-3-yl)-5-methyl-2-(pyridin-2-yl)pyrrolo[2,1-f][1,2,4]triazin-4-ol] | > 1000 | – | – | 0 | 0 | 0 (0% inhibition)

Continued, in another order:

IC50 [1, 2] [nM] | IC50 ([1]; MiaPaca2, pancreatic, KRas G12C, read-out: Proliferation assay IC50) [nM] | IC50 ([1]; Proliferation assay, MiaPaca-2, read-out: MiaPaca-2 IC50 (nM) Pancreatic) [nM] | Compound | inhibition (IL6) [%] | inhibition at 10 µM (TNF-alpha) [%] | % inh of Erk1/2 phosphorylation in Panc-1 (Erk1/2 phosphorylation)
> 1000 | – | – | CO[C@H]1CC[C@@H](Nc2nc(-c3ccccn3)nn3cc(-c4ccn(C(C)C)n4)c(C)c23)C1 (racemic) [Compound 9, rac 6-(1-Isopropyl-1H-pyrazol-3-yl)-N-((1R,3S)-3-methoxycyclopentyl)-5-methyl-2-(pyridin-2-yl)pyrrolo[2,1-f][1,2,4]triazin-4-amine] | 1 to 24 | 0 | 0 (0% inhibition)
> 1000 | – | – | CO[C@@H]1CC[C@@H](Nc2nc(-c3nccn3C)nn3cc(-c4ccn(C)n4)c(C)c23)C1 (racemic) [Compound 132, rac N-((1R,3R)-3-Methoxycyclopentyl)-5-methyl-2-(1-methyl-1H-imidazol-2-yl)-6-(1-methyl-1H-pyrazol-3-yl)pyrrolo[2,1-f][1,2,4]triazin-4-amine] | 0 | 0 | 0 (0% inhibition)
150 to 500 | < 150 | 10 to 50 | COc1cc(Nc2nc(-c3nccn3C)nn3cc(-c4ccn(C(C)C)n4)c(C)c23)ncn1 [Compound 6, 6-(1-Isopropyl-1H-pyrazol-3-yl)-N-(6-methoxypyrimidin-4-yl)-5-methyl-2-(1-methyl-1H-imidazol-2-yl)pyrrolo[2,1-f][1,2,4]triazin-4-amine] | 75 to 100 | 25 to 49 | 0 (0% inhibition)
150 to 500 | – | – | Cc1c(-c2ccn(C(C)C)n2)cn2nc(-c3nccn3C)nc(Nc3nccn3C)c12 [Compound 93, 6-(1-Isopropyl-1H-pyrazol-3-yl)-5-methyl-N,2-bis(1-methyl-1H-imidazol-2-yl)pyrrolo[2,1-f][1,2,4]triazin-4-amine] | 75 to 100 | 75 to 100 | D (85-100% inhibition)
< 150 | – | – | COc1cc(Nc2nc(-c3nccn3C)nn3cc(-c4ccccn4)c(C)c23)ncn1 [Compound 94, N-(6-Methoxypyrimidin-4-yl)-5-methyl-2-(1-methyl-1H-imidazol-2-yl)-6-(pyridin-2-yl)pyrrolo[2,1-f][1,2,4]triazin-4-amine] | 50 to 74 | 25 to 49 | C* (46-84% activation)
